Measured values as given in the NIST ThermoML archive (doi:10.1021/je200195q).
± gives the expanded uncertainty stated by the source.

Experiment: activity coefficient (dimensionless); of the first substance listed, at infinite dilution; xn = mol fraction of the nth substance listed
Details: 101 kPa, Liquid, Chromatography, x1 = 0

CCO [ethanol] + CCCCCCCCCCn1cc[n+](CCCCCCCCCC)c1C.O=S(=O)([N-]S(=O)(=O)C(F)(F)F)C(F)(F)F
activity coefficient (323.1 K): 1.27 ± 0.082 | activity coefficient (333.15 K): 1.15 ± 0.073 | activity coefficient (343.15 K): 1.04 ± 0.065

CCO [ethanol] + CCCCCC[n+]1ccn(C)c1.FC(F)(F)C(F)(F)[P-](F)(F)(F)(C(F)(F)C(F)(F)F)C(F)(F)C(F)(F)F
activity coefficient (312.8 K): 2.1 ± 0.14 | activity coefficient (332.85 K): 1.69 ± 0.11 | activity coefficient (354.65 K): 1.31 ± 0.085

CCO [ethanol] + CCCCn1cc[n+](C)c1.O=S(=O)([N-]S(=O)(=O)C(F)(F)C(F)(F)F)C(F)(F)C(F)(F)F
activity coefficient (322.55 K): 1.65 ± 0.11 | activity coefficient (342.75 K): 1.37 ± 0.089 | activity coefficient (362.65 K): 1.18 ± 0.075

CCO [ethanol] + CCn1cc[n+](C)c1.CS(=O)(=O)[O-]
activity coefficient (312.55 K): 0.438 ± 0.035 | activity coefficient (322.45 K): 0.418 ± 0.035 | activity coefficient (332.45 K): 0.405 ± 0.034

CCc1ccccc1 [ethylbenzene] + CCCCCCCCCCn1cc[n+](CCCCCCCCCC)c1C.O=S(=O)([N-]S(=O)(=O)C(F)(F)F)C(F)(F)F
activity coefficient (323.1 K): 0.652 ± 0.045 | activity coefficient (333.15 K): 0.662 ± 0.045 | activity coefficient (343.15 K): 0.689 ± 0.046

CCc1ccccc1 [ethylbenzene] + CCCCCC[n+]1ccn(C)c1.FC(F)(F)C(F)(F)[P-](F)(F)(F)(C(F)(F)C(F)(F)F)C(F)(F)C(F)(F)F
activity coefficient (312.8 K): 0.956 ± 0.06 | activity coefficient (332.85 K): 1.03 ± 0.065 | activity coefficient (354.65 K): 1.04 ± 0.066

CCc1ccccc1 [ethylbenzene] + CCCCn1cc[n+](C)c1.O=S(=O)([N-]S(=O)(=O)C(F)(F)C(F)(F)F)C(F)(F)C(F)(F)F
activity coefficient (322.55 K): 2.04 ± 0.14 | activity coefficient (342.75 K): 2.05 ± 0.14 | activity coefficient (362.65 K): 2.06 ± 0.14

CCCCCCC [heptane] + CCCCCCCCCCn1cc[n+](CCCCCCCCCC)c1C.O=S(=O)([N-]S(=O)(=O)C(F)(F)F)C(F)(F)F
activity coefficient (323.1 K): 2.53 ± 0.17 | activity coefficient (333.15 K): 2.11 ± 0.14 | activity coefficient (343.15 K): 2.08 ± 0.14

CCCCCCC [heptane] + CCCCCC[n+]1ccn(C)c1.FC(F)(F)C(F)(F)[P-](F)(F)(F)(C(F)(F)C(F)(F)F)C(F)(F)C(F)(F)F
activity coefficient (312.8 K): 8.84 ± 0.6 | activity coefficient (332.85 K): 7.73 ± 0.53 | activity coefficient (354.65 K): 6.62 ± 0.45

CCCCCCC [heptane] + CCCCn1cc[n+](C)c1.O=S(=O)([N-]S(=O)(=O)C(F)(F)C(F)(F)F)C(F)(F)C(F)(F)F
activity coefficient (322.55 K): 13.6 ± 0.93 | activity coefficient (342.75 K): 12.4 ± 0.84 | activity coefficient (362.65 K): 11.6 ± 0.79

CCCCCCC [heptane] + CCn1cc[n+](C)c1.CS(=O)(=O)[O-]
activity coefficient (312.55 K): 432 ± 30 | activity coefficient (322.45 K): 2230 ± 150 | activity coefficient (332.45 K): 497 ± 34

C=CCCCC [hex-1-ene] + CCCCCCCCCCn1cc[n+](CCCCCCCCCC)c1C.O=S(=O)([N-]S(=O)(=O)C(F)(F)F)C(F)(F)F
activity coefficient (323.1 K): 1.39 ± 0.091 | activity coefficient (333.15 K): 1.38 ± 0.09 | activity coefficient (343.15 K): 1.36 ± 0.089

C=CCCCC [hex-1-ene] + CCCCCC[n+]1ccn(C)c1.FC(F)(F)C(F)(F)[P-](F)(F)(F)(C(F)(F)C(F)(F)F)C(F)(F)C(F)(F)F
activity coefficient (312.8 K): 3.67 ± 0.25 | activity coefficient (332.85 K): 3.42 ± 0.23 | activity coefficient (354.65 K): 3.14 ± 0.21

C=CCCCC [hex-1-ene] + CCCCn1cc[n+](C)c1.O=S(=O)([N-]S(=O)(=O)C(F)(F)C(F)(F)F)C(F)(F)C(F)(F)F
activity coefficient (322.55 K): 6.07 ± 0.41 | activity coefficient (342.75 K): 5.55 ± 0.38 | activity coefficient (362.65 K): 5.24 ± 0.36

CCCCCC [hexane] + CCCCCCCCCCn1cc[n+](CCCCCCCCCC)c1C.O=S(=O)([N-]S(=O)(=O)C(F)(F)F)C(F)(F)F
activity coefficient (323.1 K): 1.82 ± 0.12 | activity coefficient (333.15 K): 1.79 ± 0.12 | activity coefficient (343.15 K): 1.76 ± 0.12

CCCCCC [hexane] + CCCCCC[n+]1ccn(C)c1.FC(F)(F)C(F)(F)[P-](F)(F)(F)(C(F)(F)C(F)(F)F)C(F)(F)C(F)(F)F
activity coefficient (312.8 K): 6.39 ± 0.44 | activity coefficient (332.85 K): 5.69 ± 0.39 | activity coefficient (354.65 K): 4.41 ± 0.3

CCCCCC [hexane] + CCCCn1cc[n+](C)c1.O=S(=O)([N-]S(=O)(=O)C(F)(F)C(F)(F)F)C(F)(F)C(F)(F)F
activity coefficient (322.55 K): 9.49 ± 0.65 | activity coefficient (342.75 K): 8.8 ± 0.6 | activity coefficient (362.65 K): 8.43 ± 0.57

CCCCCC [hexane] + CCn1cc[n+](C)c1.CS(=O)(=O)[O-]
activity coefficient (312.55 K): 207 ± 14 | activity coefficient (322.45 K): 190 ± 13 | activity coefficient (332.45 K): 152 ± 10

C=O [methanal] + CCCCCCCCCCn1cc[n+](CCCCCCCCCC)c1C.O=S(=O)([N-]S(=O)(=O)C(F)(F)F)C(F)(F)F
activity coefficient (323.1 K): 0.074 ± 0.03 | activity coefficient (333.15 K): 0.08 ± 0.03 | activity coefficient (343.15 K): 0.085 ± 0.03

C=O [methanal] + CCCCCC[n+]1ccn(C)c1.FC(F)(F)C(F)(F)[P-](F)(F)(F)(C(F)(F)C(F)(F)F)C(F)(F)C(F)(F)F
activity coefficient (312.8 K): 0.096 ± 0.03 | activity coefficient (332.85 K): 0.134 ± 0.029 | activity coefficient (354.65 K): 0.146 ± 0.029

C=O [methanal] + CCCCn1cc[n+](C)c1.O=S(=O)([N-]S(=O)(=O)C(F)(F)C(F)(F)F)C(F)(F)C(F)(F)F
activity coefficient (322.55 K): 0.134 ± 0.029 | activity coefficient (342.75 K): 0.155 ± 0.029 | activity coefficient (362.65 K): 0.164 ± 0.029
